The results in this text go back to patent US20250026781A1, “Prodrugs of Neurosteroid Analogs and Uses Thereof” (Emory University, priority 2021, published 2025).

Structures can show the parent of a compound that is named as a salt.

A short description of this series: Plasma stability assay in human plasma (LC-MS/MS). As to conditions: 37° C., 3 μM test compound, time points 0-240 min, read-out: Plasma t1/2 (converted). It is filed as in vitro ADME. The protocol: Procaine and procainamide were purchased from Sigma Aldrich. HPLC-grade acetonitrile, water, methanol, and formic acid were purchased from Fisher Scientific. Human plasma (Cat. No. […]2N) was obtained from BIOIVT, and PBS (1× Dulbecco's, pH 7.4) from Thermo Fisher Scientific.
Test compounds were dissolved in DMSO to make a stock solution of 10 mM and then diluted to 500 μM in buffer or 70% methanol. Human plasma was thawed at ambient temperature and aliquoted (994.0 μL) to a 1.5 mL Eppendorf tube in duplicates (vials A and B) for each compound. The plasma was incubated at 37° C. for 10 min in an incubator shaker at 150 RPM; the reaction was initiated by addition of the test compound (6.0 μL), followed by vortex mixing. The total reaction volume was 1000 μL, the final organic solvent concentrations were […] (when 70% methanol was used for dilution) and 0.03% DMSO, and the final concentration of the test compound was 3 μM. The spiked plasma samples were incubated at 37° C. for 4 h. The reactions were terminated at time point 0, 15, 30, 60, 120, 180, and 240 min by taking a 100 μL aliquot from the test incubation mixture and immediately quenching it by adding it into ice-cold acetonitrile or methanol (150 μL) containing 2 μM internal standard (ISTD), followed by vortex mixing. The ISTD was d5-7-ethoxy coumarin. The samples were then centrifuged at 15000 RPM for 25 min at 4° C., and the supernatant was transferred to an LC-MS vial for analysis by LC-MS/MS. Each time point was tested in duplicates followed by in-between blank washes to avoid carryover and to equilibrate the column.
Procaine (poor plasma stability) and procainamide (good plasma stability) were used as controls at the same concentration as that of the test compound. These controls were run in parallel to test the assay's competency. Matrix blank was prepared by adding acetonitrile or methanol containing ISTD to plasma samples without any of the test or control compounds. Also, an additional control sample was made to simply monitor compound degradation in PBS buffer.
Below is a summary of samples prepared for a given test compound in a typical plasma stability assay: • Test compound (TC): 994 μL human plasma+6.0 μL TC (Vial A) • 994 μL human plasma+6.0 μL TC (Vial B) • Control: 596 μL human plasma+3.6 μL (procaine+procainamide) • Blank matrix: 500 μL PBS buffer+100 μL human plasma • Additional control: 142 μL PBS buffer+0.9 μL TC • Quenching mixture: 150 μL acetonitrile or methanol with ISTD (2 μM) • Final volume: 250 μL (100 μL from the incubation mixture+150 μL quenching mixture; final ISTD conc.: 1.2 μM)
LC-MS/MS analysis was performed using Agilent 1260 Infinity II HPLC, coupled with an Agilent G6460 triple quadrupole mass spectrometer (Agilent Technologies, USA). The data were acquired and processed using the Agilent 6460 Quantitative Analysis data processing software.
Reverse-phase HPLC separation for each compound was achieved on an Agilent InfinityLab Poroshell 120 C18 column (2.1×50 mm, 2.7 μm) with a mobile phase composed of methanol/water with 0.1% formic acid or acetonitrile/water with 0.1% formic acid at a flow rate of 0.5 mL/min. Each method was developed in the presence of the ISTD. The column temperature was maintained at 40° C. The detection was operated using the Agilent Jet-Stream electrospray positive ionization under the multiple reaction monitoring (MRM) mode. The mass spec conditions were as follows: dwell time 100 ms; gas flow 10 L/min; nebulizer pressure 45 psi; delta EMV 200 V.
Plots of time (x-axis) vs. the natural logarithm of percent parent remaining (y-axis) were subsequently constructed to determine the slope. Finally, the plasma stability was evaluated using the following equation: […]
In the case of `C/C(=N\OC(=O)N(C)C[C@@H]1CCCN1)[C@H]1CC[C@H]2[C@@H]3CCC4C[C@@H](O)CC[C@]4(C)[C@H]3CC[C@]12C` (stereo partly drawn) [13a, (E)-1-((3S,8R,9S,10S,13S,14S,17S)-3-hydroxy-10,13-dimethylhexadecahydro-1H-cyclopenta[a]phenanthren-17-yl)ethan-1-one O-(methyl(((S)-pyrrolidin-2-yl)methyl)carbamoyl)oxime trifluoroacetate], the half-life at 3 μM is below 0.1 h. Turning to `CNCCN(C)C(=O)O/N=C(\C)[C@H]1CC[C@H]2[C@@H]3CCC4C[C@@H](O)CC[C@]4(C)[C@H]3CC[C@]12C` (stereo partly drawn) [12a, (E)-1-((3S,8R,9S,10S,13S,14S,17S)-3-hydroxy-10,13-dimethylhexadecahydro-1H-cyclopenta[a]phenanthren-17-yl)ethan-1-one O-(methyl (2-(methylamino)ethyl)carbamoyl) oxime trifluoroacetate], the half-life at 3 μM is 1.45 h. On to `C/C(=N\OC(=O)N(C)C[C@@H]1CCCN1)[C@H]1CC[C@H]2[C@@H]3CCC4C[C@H](O)CC[C@]4(C)[C@H]3CC[C@]12C` (stereo partly drawn) [13c, (E)-1-((3R,8R,9S,10S,13S,14S,17S)-3-hydroxy-10,13-dimethylhexadecahydro-1H-cyclopenta[a]phenanthren-17-yl)ethan-1-one O-(methyl(((S)-pyrrolidin-2-yl)methyl)carbamoyl)oxime trifluoroacetate], for which the half-life at 3 μM is below 0.1 h. To `CNCCN(C)C(=O)O/N=C(\C)[C@H]1CC[C@H]2[C@@H]3CC=C4C[C@@H](O)CC[C@]4(C)[C@H]3CC[C@]12C` [12b, (E)-1-((3S,8S,9S,10R,13S,14S,17S)-3-hydroxy-10,13-dimethyl-2,3,4,7,8,9,10,11,12,13,14,15,16,17-tetradecahydro-1H-cyclopenta[a]phenanthren-17-yl)ethan-1-one O-(methyl (2-(methylamino)ethyl)carbamoyl)oxime trifluoroacetate] belongs 1.23 h. As for `CNCCN(C)C(=O)O/N=C(\C)[C@H]1CC[C@H]2[C@@H]3CCC4C[C@H](O)CC[C@]4(C)[C@H]3CC[C@]12C` (stereo partly drawn) [12c, (E)-1-((3R,8R,9S,10S,13S,14S,17S)-3-hydroxy-10,13-dimethylhexadecahydro-1H-cyclopenta[a]phenanthren-17-yl)ethan-1-one O-(methyl (2-(methylamino)ethyl)carbamoyl)oxime trifluoroacetate], the half-life at 3 μM was 1.39 h. To `C/C(=N\OC(=O)N(C)C[C@@H]1CCCN1)[C@H]1CC[C@H]2[C@@H]3CC=C4C[C@@H](O)CC[C@]4(C)[C@H]3CC[C@]12C` [13b, (E)-1-((3S,8S,9S,10R,13S,14S,17S)-3-hydroxy-10,13-dimethyl-2,3,4,7,8,9,10,11,12,13,14,15,16,17-tetradecahydro-1H-cyclopenta[a]phenanthren-17-yl)ethan-1-one O-(methyl(((S)-pyrrolidin-2-yl)methyl)carbamoyl)oxime trifluoroacetate] belongs below 0.1 h.
